{"source": "patent US20260240879A1", "about": "“TOPICAL PALA THERAPY FOR CANCER” (priority 2023, published 2026)", "key": {"[1]": {"target": "aspartate transcarbamylase (Escherichia coli, UniProt P0A786)", "sequence (P0A786 2-311)": "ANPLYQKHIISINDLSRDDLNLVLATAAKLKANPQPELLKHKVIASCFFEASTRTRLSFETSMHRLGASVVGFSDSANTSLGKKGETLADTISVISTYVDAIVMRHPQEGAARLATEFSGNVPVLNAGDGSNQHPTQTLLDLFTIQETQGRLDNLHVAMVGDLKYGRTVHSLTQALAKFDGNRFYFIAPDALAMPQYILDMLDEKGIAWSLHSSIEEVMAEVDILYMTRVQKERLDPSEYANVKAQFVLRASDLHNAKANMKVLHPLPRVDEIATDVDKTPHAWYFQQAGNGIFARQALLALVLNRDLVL", "details": "transition-state analog inhibitor; cited from earlier work"}, "[2]": {"test_system": "UVB-induced NMSC (AK lesions and SCC tumors)", "assay": "UVB-induced NMSC mouse model: tumor number, area, growth phenotype and grade", "details": "for total tumors at endpoint: vehicle 12.5±2.4"}, "[3]": {"test_system": "MOC-1 squamous cell carcinoma cells", "assay": "Oral squamous cell carcinoma orthotopic xenograft (tongue)", "format": "in vivo, C57Bl/6 mice", "details": "2% (w/w) PALA (AP0536/29/02), tongue treated topically 5×/week", "protocol": "FIG. 18: Tumor growth of oral squamous cell carcinoma orthotopic xenografts is retarded by topical PALA treatment. C57Bl/6 mice (males and females; n=6/group) were injected with MOC-1 squamous cell carcinoma cells in the tongue. Once palpable tumors formed, mouse tongues were treated topically 5×/week with vehicle (AP0536/29/02) or 2% (w/w) PALA (AP0536/29/02). Tumor volume was measured by caliper every 2-3 days. Data are graphed as mean±SEM. Significant differences were determined by Mixed-effects Model (REML) with Sidak's multiple comparison test. *p<0.05, ****p<0.0001."}, "[4]": {"test_system": "chemical carcinogen-induced skin cancer", "details": "2% (w/v) PALA in 50% acetone/10% glycerol, topical, 4 weeks", "protocol": "SKH1-Elite female mice were treated topically with DMBA for 2 weeks and then treated topically with TPA thrice a week for 8 weeks to induce skin cancer. Mice were then randomized into treatment groups and treated topically with vehicle (50% acetone/10% glycerol) or 2% (w/v) PALA for 4 weeks. A. Quantitation of mean change in tumor burden per mouse during the treatment period as a percentage of the tumor number on week 9. B. Weight change during the treatment period presented as percentage of baseline weight. C. Levels of the liver and systemic inflammation marker serum amyloid A (SAA) at endpoint. D. Measurements of colon length at endpoint as a gross measure of intestinal pathology. Means±SEM, n=8-9/group. Significance determined by 2-way ANOVA with Sidak's multiple comparisons test or unpaired […] t-test. All p values <0.05 are shown on the graphs."}, "[5]": {"details": "2% (w/w) PALA (AP0536/29/02), daily, 4 weeks"}, "[6]": {"details": "individual tumors, PALA n = 48, vehicle 7.3%"}}, "data": [{"smiles": "O=C(O)CC(NC(=O)CP(=O)(O)O)C(=O)O", "note": "[PALA, N-phosphonacetyl-L-aspartate]", "values": [{"measurement": "potency as inhibitor of aspartate transcarbamylase", "setting": "[1]", "value": "nanomolar potency"}, {"measurement": "total tumors at endpoint", "setting": "[2]; 1% PALA in 50% acetone/10% glycerol, daily topical, 10 weeks", "value": "11.7±3.8"}, {"measurement": "average tumor burden, % of original size at endpoint", "setting": "[2]; 1% PALA, daily topical, 10 weeks, vehicle 286.4%±62.6", "value": "275.0%±84.7"}, {"measurement": "shape of dose-response, average number of tumors per mouse at end of treatment", "setting": "[2]; 1%, 2%, 5% PALA in Aquaphor 10 weeks, 4% (w/w) PALA 4 weeks", "value": "U-shaped dose-response curves"}, {"measurement": "growth profile of individual tumors", "setting": "[2]; [5]", "value": "lower percentage of continually growing tumors"}, {"measurement": "mean tumor surface area per tumor (average tumor size)", "setting": "[2]; [5]", "value": "significantly smaller average tumor size than either vehicle or 5% IMQ treated mice"}, {"measurement": "endpoint tumor grade", "setting": "[2]; 2% (w/w) PALA (AP0536/29/02), daily, 4 weeks, vs vehicle or 5% IMQ", "value": "fewer squamous cell carcinoma (SCC) and SCC in situ tumors"}, {"measurement": "total tumors at endpoint", "setting": "[2]; 2% PALA in 50% acetone/10% glycerol, daily topical, 10 weeks", "value": "3.83±0.6"}, {"measurement": "tumor levels of interleukin-1β", "setting": "[2]; 2% PALA or 5% IMQ, daily, 4 weeks", "value": "elevated"}, {"measurement": "mean tumor cross-sectional area, endpoint value", "setting": "[2]; 2% PALA, daily topical, 10 weeks, vehicle 4.4, p=0.003", "value": 2.4, "unit": "mm^2"}, {"measurement": "mean surface tumor area, endpoint value", "setting": "[2]; 2% PALA, daily topical, 10 weeks, vehicle 197.1, p<0.0001", "value": 30.3, "unit": "mm^2"}, {"measurement": "average tumor burden, % of original size at endpoint", "setting": "[2]; 2% PALA, daily topical, 10 weeks, vehicle 286.4%±62.6, 252.3%±34.3", "value": "99.2%±20.5"}, {"measurement": "tumor levels of interferon-al", "setting": "[2]; 2% PALA, daily, 4 weeks, compared with 5% IMQ", "value": "elevated only in 2% PALA treated mice"}, {"measurement": "total tumors at endpoint", "setting": "[2]; 5% PALA in 50% acetone/10% glycerol, daily topical, 10 weeks", "value": "6.20±1.8"}, {"measurement": "average tumor burden, % of original size at endpoint", "setting": "[2]; 5% PALA, daily topical, 10 weeks, vehicle 286.4%±62.6", "value": "91.6%±13.4"}, {"measurement": "concentrations demonstrating anti-tumor activity", "setting": "[2]; 10 weeks of daily topical treatment", "value": "≥ 2", "unit": "%"}, {"measurement": "tumors shrinking after an initial period of growth or continually reducing in size", "setting": "[2]; PALA treated tumors, 10 weeks", "value": 97.9, "unit": "%"}, {"measurement": "proportion of AK/SCC in situ and benign lesions", "setting": "[2]; PALA-treated mice, vehicle 31%, p<0.001", "value": 62, "unit": "%"}, {"measurement": "prevalence of well differentiated SCC and poorly differentiated SCC", "setting": "[2]; PALA-treated mice, vehicle 69%, p<0.0001", "value": 38, "unit": "%"}, {"measurement": "Total Tumor Number: Poorly Differentiated SCC", "setting": "[2]; excised tumors, 2% PALA daily 10 weeks, vehicle 25", "value": 6}, {"measurement": "Total Tumor Number: Benign/ Hyperplastic", "setting": "[2]; excised tumors, vehicle 0", "value": 8}, {"measurement": "Total Tumor Number: AK/SCC in situ", "setting": "[2]; excised tumors, vehicle 28", "value": 23}, {"measurement": "Total Tumor Number: Well Differentiated SCC", "setting": "[2]; excised tumors, vehicle 37", "value": 12}, {"measurement": "Tumor Growth Outcome: Same, %", "setting": "[2]; [6]", "value": "0 (0%)"}, {"measurement": "Tumor Growth Outcome: Smaller, %", "setting": "[2]; [6]", "value": 4.1, "unit": "%"}, {"measurement": "Tumor Growth Phenotype: No Change, %", "setting": "[2]; [6]", "value": "0 (0%)"}, {"measurement": "Tumor Growth Phenotype: Continual Shrinkage, %", "setting": "[2]; individual tumors, PALA n = 48, vehicle 17.0%", "value": 29.1, "unit": "%"}, {"measurement": "Tumor Growth Outcome: Resolved, %", "setting": "[2]; individual tumors, PALA n = 48, vehicle 26.8%", "value": 83.3, "unit": "%"}, {"measurement": "Tumor Growth Phenotype: Grow then Shrink, %", "setting": "[2]; individual tumors, PALA n = 48, vehicle 29.2%", "value": 68.7, "unit": "%"}, {"measurement": "Tumor Growth Phenotype: Continual Growth, %", "setting": "[2]; individual tumors, PALA n = 48, vehicle 46.3%", "value": 2.0, "unit": "%"}, {"measurement": "Tumor Growth Outcome: Larger, %", "setting": "[2]; individual tumors, PALA n = 48, vehicle 58.5%", "value": 12.5, "unit": "%"}, {"measurement": "tumor burden and total tumor area", "setting": "[2]; reformulated 2% (w/v) PALA (AP0536/29/02), daily, 6 weeks", "value": "effective in reducing tumor burden and total tumor area"}, {"measurement": "Tumor Prevalence: Benign/ Hyperplastic", "setting": "[2]; vehicle 0%", "value": 13, "unit": "%"}, {"measurement": "Tumor Area: Benign/ Hyperplastic, mean (SEM)", "setting": "[2]; vehicle 0 (0)", "value": "1.4 (0.3)"}, {"measurement": "Tumors / Mouse: Benign/ Hyperplastic, mean (SEM)", "setting": "[2]; vehicle 0 (0)", "value": "0.5 (0.6)"}, {"measurement": "Tumor Cross Sectional Area: AK/SCC in situ, mean (SEM)", "setting": "[2]; vehicle 1.5 (0.7)", "value": "1.1 (1.0) mm^2"}, {"measurement": "Tumors / Mouse: Poorly Differentiated SCC, mean (SEM)", "setting": "[2]; vehicle 2.0 (1.6)", "value": "0.5 (0.9)"}, {"measurement": "Tumors / Mouse: AK/SCC in situ, mean (SEM)", "setting": "[2]; vehicle 2.3 (2.1)", "value": "1.9 (1.2)"}, {"measurement": "Tumors / Mouse: Well Differentiated SCC, mean (SEM)", "setting": "[2]; vehicle 3.0 (1.8)", "value": "1.0 (1.1)"}, {"measurement": "Tumor Area: AK/SCC in situ, mean (SEM)", "setting": "[2]; vehicle 3.4 (6.6)", "value": "2.3 (2.0)"}, {"measurement": "Tumor Cross Sectional Area: Well Differentiated SCC, mean (SEM)", "setting": "[2]; vehicle 3.7 (2.0)", "value": "3.1 (2.2) mm^2"}, {"measurement": "Tumor Cross Sectional Area: Poorly Differentiated SCC, mean (SEM)", "setting": "[2]; vehicle 9.2 (5.8)", "value": "9.8 (6.4) mm^2"}, {"measurement": "Tumor Area: Well Differentiated SCC, mean (SEM)", "setting": "[2]; vehicle 10.7 (18.0)", "value": "7.5 (4.5)"}, {"measurement": "Tumor Prevalence: Poorly Differentiated SCC", "setting": "[2]; vehicle 28%", "value": 13, "unit": "%"}, {"measurement": "Tumor Prevalence: AK/SCC in situ", "setting": "[2]; vehicle 31%", "value": 49, "unit": "%"}, {"measurement": "Tumor Prevalence: Well Differentiated SCC", "setting": "[2]; vehicle 41%", "value": 25, "unit": "%"}, {"measurement": "Tumor Area: Poorly Differentiated SCC, mean (SEM)", "setting": "[2]; vehicle 59.5 (77.3)", "value": "62.6 (70.0)"}, {"measurement": "Tumor Cross Sectional Area: Benign/ Hyperplastic, mean (SEM)", "setting": "[2]; vehicle n/a", "value": "1.7 (2.0) mm^2"}, {"measurement": "tumor growth (tumor volume)", "setting": "[3]", "value": "retarded"}, {"measurement": "change in tumor burden", "setting": "[4]", "value": "trends of efficacy in reducing tumor burden"}]}]}
